# Test results taken from PubChem BioAssay (NCI).
#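 96-well plates; 48 h exposure; 5 concentrations. Endpoints by linear interpolation between flanking doses. Not reached: highest tested concentration assigned. GI50 is the concentration that inhibits growth by half. TGI marks complete inhibition of growth.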
# Legend:
# Test in all cases: inhibition of tumour cell growth, NCI panel, 48 h
# 786-0 renal = test system: 786-0 renal
# A498 renal = test system: A498 renal
# A549 NSCLC = test system: A549 NSCLC
# ACHN renal = test system: ACHN renal
# BT-549 breast = test system: BT-549 breast
# CAKI-1 renal = test system: CAKI-1 renal
# CCRF-CEM leukemia = test system: CCRF-CEM leukemia
# COLO 205 colon = test system: COLO 205 colon
# DU-145 prostate = test system: DU-145 prostate
# EKVX NSCLC = test system: EKVX NSCLC
# HCC-2998 colon = test system: HCC-2998 colon
# HCT-116 colon = test system: HCT-116 colon
# HCT-15 colon = test system: HCT-15 colon
# HL-60(TB) leukemia = test system: HL-60(TB) leukemia
# HOP-62 NSCLC = test system: HOP-62 NSCLC
# HOP-92 NSCLC = test system: HOP-92 NSCLC
# HS 578T breast = test system: HS 578T breast
# HT29 colon = test system: HT29 colon
# IGROV1 ovarian = test system: IGROV1 ovarian
# K-562 leukemia = test system: K-562 leukemia
# KM12 colon = test system: KM12 colon
# M14 melanoma = test system: M14 melanoma
# MALME-3M melanoma = test system: MALME-3M melanoma
# MCF7 breast = test system: MCF7 breast
# MDA-MB-231 breast = test system: MDA-MB-231 breast
# MDA-MB-435 = test system: MDA-MB-435
# MOLT-4 leukemia = test system: MOLT-4 leukemia
# NCI-H226 lung = test system: NCI-H226 lung
# NCI-H23 lung = test system: NCI-H23 lung
# NCI-H460 lung = test system: NCI-H460 lung
# NCI-H522 lung = test system: NCI-H522 lung
# NCI/ADR-RES ovarian = test system: NCI/ADR-RES ovarian
# OVCAR-4 ovarian = test system: OVCAR-4 ovarian
# OVCAR-5 ovarian = test system: OVCAR-5 ovarian
# OVCAR-8 ovarian = test system: OVCAR-8 ovarian
# PC-3 prostate = test system: PC-3 prostate
# RPMI-8226 leukemia = test system: RPMI-8226 leukemia
# RXF 393 renal = test system: RXF 393 renal
# SF-268 CNS = test system: SF-268 CNS
# SF-295 CNS = test system: SF-295 CNS
# SF-539 CNS = test system: SF-539 CNS
# SK-MEL-2 melanoma = test system: SK-MEL-2 melanoma
# SK-MEL-28 melanoma = test system: SK-MEL-28 melanoma
# SK-MEL-5 melanoma = test system: SK-MEL-5 melanoma
# SK-OV-3 ovarian = test system: SK-OV-3 ovarian
# SN12C renal = test system: SN12C renal
# SNB-19 CNS = test system: SNB-19 CNS
# SNB-75 CNS = test system: SNB-75 CNS
# SR leukemia = test system: SR leukemia
# SW-620 colon = test system: SW-620 colon
# T-47D breast = test system: T-47D breast
# TK-10 renal = test system: TK-10 renal
# U251 CNS = test system: U251 CNS
# UACC-257 melanoma = test system: UACC-257 melanoma
# UACC-62 melanoma = test system: UACC-62 melanoma
# UO-31 renal = test system: UO-31 renal
smiles,measurement,setting,value
COc1ccc(Cn2cc3c(c2-c2cc(OC)c(OC)c(OC)c2)CCc2c(CN4CCCC4)noc2-3)cc1,GI50,786-0 renal,0.997 µM
same,TGI,786-0 renal,21.9 µM
same,GI50,A498 renal,0.78 µM
same,TGI,A498 renal,6.38 µM
same,GI50,A549 NSCLC,1.33 µM
same,TGI,A549 NSCLC,> 100 µM
same,GI50,ACHN renal,0.634 µM
same,TGI,ACHN renal,36.5 µM
same,GI50,BT-549 breast,2.47 µM
same,TGI,BT-549 breast,14.3 µM
same,GI50,CAKI-1 renal,0.451 µM
same,TGI,CAKI-1 renal,20.2 µM
same,GI50,CCRF-CEM leukemia,0.727 µM
same,TGI,CCRF-CEM leukemia,> 100 µM
same,GI50,COLO 205 colon,0.941 µM
same,TGI,COLO 205 colon,5.49 µM
same,GI50,DU-145 prostate,4 µM
same,TGI,DU-145 prostate,> 100 µM
same,GI50,EKVX NSCLC,2.11 µM
same,TGI,EKVX NSCLC,> 100 µM
same,GI50,HCC-2998 colon,1.84 µM
same,TGI,HCC-2998 colon,14.6 µM
same,GI50,HCT-116 colon,0.466 µM
same,TGI,HCT-116 colon,14.9 µM
same,GI50,HCT-15 colon,0.475 µM
same,TGI,HCT-15 colon,12.1 µM
same,GI50,HL-60(TB) leukemia,0.317 µM
same,TGI,HL-60(TB) leukemia,1.28 µM
same,GI50,HOP-62 NSCLC,1.41 µM
same,TGI,HOP-62 NSCLC,32.6 µM
same,GI50,HOP-92 NSCLC,1.35 µM
same,TGI,HOP-92 NSCLC,12 µM
same,GI50,HS 578T breast,1.8 µM
same,TGI,HS 578T breast,27.3 µM
same,GI50,HT29 colon,0.398 µM
same,TGI,HT29 colon,12.6 µM
same,GI50,IGROV1 ovarian,0.892 µM
same,TGI,IGROV1 ovarian,> 100 µM
same,GI50,K-562 leukemia,0.348 µM
same,TGI,K-562 leukemia,16.6 µM
same,GI50,KM12 colon,12.6 µM
same,TGI,KM12 colon,81.2 µM
same,GI50,M14 melanoma,0.582 µM
same,TGI,M14 melanoma,10.6 µM
same,GI50,MALME-3M melanoma,0.496 µM
same,TGI,MALME-3M melanoma,21.4 µM
same,GI50,MCF7 breast,0.325 µM
same,TGI,MCF7 breast,20 µM
same,GI50,MDA-MB-231 breast,3.05 µM
same,TGI,MDA-MB-231 breast,15.2 µM
same,GI50,MDA-MB-435,0.239 µM
same,TGI,MDA-MB-435,0.595 µM
same,GI50,MOLT-4 leukemia,1.47 µM
same,TGI,MOLT-4 leukemia,32.8 µM
same,GI50,NCI-H226 lung,2.07 µM
same,TGI,NCI-H226 lung,30.3 µM
same,GI50,NCI-H23 lung,2.8 µM
same,TGI,NCI-H23 lung,> 100 µM
same,GI50,NCI-H460 lung,0.566 µM
same,TGI,NCI-H460 lung,12.6 µM
same,GI50,NCI-H522 lung,0.472 µM
same,TGI,NCI-H522 lung,18.9 µM
same,GI50,NCI/ADR-RES ovarian,0.55 µM
same,TGI,NCI/ADR-RES ovarian,11.2 µM
same,GI50,OVCAR-4 ovarian,21.4 µM
same,TGI,OVCAR-4 ovarian,> 100 µM
same,GI50,OVCAR-5 ovarian,3.2 µM
same,TGI,OVCAR-5 ovarian,> 100 µM
same,GI50,OVCAR-8 ovarian,3.27 µM
same,TGI,OVCAR-8 ovarian,78.9 µM
same,GI50,PC-3 prostate,0.636 µM
same,TGI,PC-3 prostate,> 100 µM
same,GI50,RPMI-8226 leukemia,1.27 µM
same,TGI,RPMI-8226 leukemia,9.04 µM
same,GI50,RXF 393 renal,0.893 µM
same,TGI,RXF 393 renal,7.96 µM
same,GI50,SF-268 CNS,3.15 µM
same,TGI,SF-268 CNS,29.8 µM
same,GI50,SF-295 CNS,0.461 µM
same,TGI,SF-295 CNS,12.4 µM
same,GI50,SF-539 CNS,0.753 µM
same,TGI,SF-539 CNS,4.46 µM
same,GI50,SK-MEL-2 melanoma,13.2 µM
same,TGI,SK-MEL-2 melanoma,41.4 µM
same,GI50,SK-MEL-28 melanoma,11.5 µM
same,TGI,SK-MEL-28 melanoma,29.6 µM
same,GI50,SK-MEL-5 melanoma,1.02 µM
same,TGI,SK-MEL-5 melanoma,11.9 µM
same,GI50,SK-OV-3 ovarian,6.7 µM
same,TGI,SK-OV-3 ovarian,> 100 µM
same,GI50,SN12C renal,4.43 µM
same,TGI,SN12C renal,78 µM
same,GI50,SNB-19 CNS,0.78 µM
same,TGI,SNB-19 CNS,> 100 µM
same,GI50,SNB-75 CNS,0.668 µM
same,TGI,SNB-75 CNS,4.83 µM
same,GI50,SR leukemia,0.36 µM
same,TGI,SR leukemia,13.5 µM
same,GI50,SW-620 colon,0.54 µM
same,TGI,SW-620 colon,80.3 µM
same,GI50,T-47D breast,2.65 µM
same,TGI,T-47D breast,48 µM
same,GI50,TK-10 renal,23.4 µM
same,TGI,TK-10 renal,> 100 µM
same,GI50,U251 CNS,0.543 µM
same,TGI,U251 CNS,21.1 µM
same,GI50,UACC-257 melanoma,17 µM
same,TGI,UACC-257 melanoma,47.7 µM
same,GI50,UACC-62 melanoma,0.545 µM
same,TGI,UACC-62 melanoma,22.7 µM
same,GI50,UO-31 renal,1.16 µM
same,TGI,UO-31 renal,13.7 µM
